Data set [1] addresses C-terminus peptide of CETP (Homo sapiens, UniProt P11597).
The conditions of data set [2]: phase II, cited from earlier work.
The conditions of data set [3]: phase III, treatment group receiving combination with atorvastatin; cited from earlier work.
The target of a further data set is T1, CETP (Homo sapiens, UniProt P11597).
T1 construct: host or cells: trial subjects' plasma (not described)
T1 sequence (P11597 18-493): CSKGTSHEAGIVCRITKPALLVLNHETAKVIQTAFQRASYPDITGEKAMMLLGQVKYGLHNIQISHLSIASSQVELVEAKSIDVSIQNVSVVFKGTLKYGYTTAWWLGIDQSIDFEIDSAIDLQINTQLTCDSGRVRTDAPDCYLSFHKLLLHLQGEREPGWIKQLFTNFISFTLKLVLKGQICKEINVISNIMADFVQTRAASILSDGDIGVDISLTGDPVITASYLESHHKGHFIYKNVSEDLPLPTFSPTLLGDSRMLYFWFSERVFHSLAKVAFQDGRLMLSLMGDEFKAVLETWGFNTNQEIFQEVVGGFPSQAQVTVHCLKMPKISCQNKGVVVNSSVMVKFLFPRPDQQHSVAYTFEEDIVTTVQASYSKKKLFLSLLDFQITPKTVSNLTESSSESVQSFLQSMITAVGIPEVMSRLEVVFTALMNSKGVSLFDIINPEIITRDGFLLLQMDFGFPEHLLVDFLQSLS
To be noted: phase II, group with the highest dose; cited from earlier work.

For data set [4] the following is noted: pH 9.5.
Data set [5] concerns the target 10 nm-diameter nascent discoid HDL particles. As to conditions: cited from earlier work.

Here are results for six molecules from patent US9539312B2 (UNIVERSIDAD NACIONAL AUTÓNOMA DE MÉXICO, priority 2012, dated 2017).

Where two headings read alike, the source gives them in different places. Where no end group is shown, it is not given here.

In the case of `CCCCCCCCCCCC(=O)OC[C@@H](O)COP(=O)([O-])OCC[N+](C)(C)C` [lysophosphatidylcholine (C12), 1-Lauril-2-Hydroxi-snglycero 3 phosphocholine], the “secondary structure of the antigen peptide” value in data set [1] is on record as “favored the presentation of the α-helix structure”.
Regarding `COc1cc(F)c(C(C)C)cc1-c1ccc(C(F)(F)F)cc1CN1C(=O)O[C@H](c2cc(C(F)(F)F)cc(C(F)(F)F)c2)[C@@H]1C` [Anacetrapib], in data set [2] (all cohorts), the blood pressure entry is “without the corresponding increase in blood pressure”. In addition, the “increase in HDL, average” value is given as 44% in data set [2] (dose 10 mg), 86% in data set [2] (dose 40 mg), 139% in data set [2] (dose 150 mg) and 133% in data set [2] (dose 300 mg).
In the case of `CCOC(=O)N1c2ccc(C(F)(F)F)cc2[C@@H](N(Cc2cc(C(F)(F)F)cc(C(F)(F)F)c2)C(=O)OC)C[C@H]1CC` [Torcetrapib], the “mortality and cardiovascular events” value in data set [3] was “cases of mortality and cardiovascular events”.
For the molecule `CCC(CC)CC1(C(=O)Nc2ccccc2SC(=O)C(C)C)CCCCC1` [Dalcetrapib], at CETP, the CETP activity decreased was 36% and the HDL cholesterol increased is reported as 34%.
Turning to CHLLVDFLQSLS [Y-helix], the “solubility and monomeric state of peptide” value in data set [4] is “allows solubility and keeps the peptide in monomeric state”.

B1: CETP: proatherogenic hydrophobic glycoprotein that transfers cholesteryl esters and triglycerides among lipoproteins (protein, UniProt P11597 18-493, looked up)
Cholesteryl ester transfer …: CSKGTSHEAGIVCRITKPALLVLNHETAKVIQTAFQRASYPDITGEKAMMLLGQVKYGLHNIQISHLSIASSQVELVEAKSIDVSIQNVSVVFKGTLKYGYTTAWWLGIDQSIDFEIDSAIDLQINTQLTCDSGRVRTDAPDCYLSFHKLLLHLQGEREPGWIKQLFTNFISFTLKLVLKGQICKEINVISNIMADFVQTRAASILSDGDIGVDISLTGDPVITASYLESHHKGHFIYKNVSEDLPLPTFSPTLLGDSRMLYFWFSERVFHSLAKVAFQDGRLMLSLMGDEFKAVLETWGFNTNQEIFQEVVGGFPSQAQVTVHCLKMPKISCQNKGVVVNSSVMVKFLFPRPDQQHSVAYTFEEDIVTTVQASYSKKKLFLSLLDFQITPKTVSNLTESSSESVQSFLQSMITAVGIPEVMSRLEVVFTALMNSKGVSLFDIINPEIITRDGFLLLQMDFGFPEHLLVDFLQSLS
Turning to B1, the Kd in data set [5] is 20 to 120 nM.
